Measured values taken from patent US11179363B2, “Non-steroidal selective glucocorticoid receptor agonistic modulators (SEGRAMs) and uses thereof” (ASSOCIATION POUR LA RECHERCHE À L'IGBMC (ARI), priority 2017, dated 2021).

Assays:
[1] = test system: collagen-induced Th17 rheumatoid arthritis-like inflammation; assay: Collagen-induced arthritis (CIA); type: in vivo, mice (DBA-1 strain); settings: i.p. 1 mg/kg daily for 10 days (T0 to T10); 1 mg/kg
Description: Mice were treated with collagen to induce a Th17 rheumatoid arthritis-like inflammation as described by Inglis et al. (2007. Arthritis Res Ther. 9(5):R113) and Geboes et al. (2009. Arthritis Rheum. 60(2):390-5).
Male mice (DBA-1 strain) were subcutaneously-injected with 100 μg collagen per mouse on D0. The hind paw thickness at the ankle level was regularly measured with a caliper. When the ankle thickness had reached around 4 mm (T0, i.e., 30 to 50 days after the collagen injection on D0), mice were daily intraperitoneally-injected for 10 days (T0 to T10) with either vehicle (NaCl 0.9%), Dex, CpdX, CpdX(eA), CpdX(eB), CpdX-D3, CpdX-D3(eA) or CpdX-D3(eB) (1 mg/kg body weight diluted in NaCl 0.9%), and the hind paw thickness at the ankle level was daily measured with a caliper. Pictures of the hind paws were taken at days T0 and T10 (before and after the treatment with either Vehicle, Dex, CpdX, CpdX(eA), CpdX(eB), CpdX-D3, CpdX-D3(eA) or CpdX-D3(eB)), in order to assess the course of swelling.
RNA transcripts were extracted from whole hind paws of collagen-untreated and collagen-treated mice at T0 and T10. IL-1β, IL-6, IL-17a, IL-17f and TNFα transcripts were analyzed by q-RT-PCR.

[2] = test system: DSS-induced Th17 ulcerative colitis; assay: Dextran sodium sulfate (DSS)-induced ulcerative colitis; type: in vivo, Balb/C mice; settings: for pro-inflammatory genes overexpressed in DSS-induced ulcerative colitis (IL-1β, IL-6, IL-17a, IL-17f, TSLP, MMP13): colon, q-RT-PCR, D14; for colonic villus/crypt structure (histology) / mucosal and submucosal cell infiltration (histology): i.p. 1 mg/kg on D11, D12, D13, 3% DSS 13 days
Description: To investigate the anti-inflammatory activity of CpdX and CpdX-D3 on a Th17 ulcerative colitis, Balb/C mice were treated with 3% DSS in drinking water for 13 days, with or without an intraperitoneal administration of either Dex, CpdX, CpdX(eA), CpdX(eB), CpdX-D3, CpdX-D3(eA) or CpdX-D3(eB) (1 mg/kg of body weight) on D11, D12 and D13.
At D14, RNA transcripts were extracted from mouse colons. IL-1β, IL-6, IL-17a, IL-17f, TSLP and MMP13 transcripts were analyzed by q-RT-PCR. Colon samples were also harvested for histological analyses (with H&E staining).

[3] = test system: OVA-induced allergic conjunctivitis; assay: Ovalbumin (OVA)-induced allergic conjunctivitis; type: in vivo, Balb/C mice; settings: 0.1% instillation D22 to D24, 20 minutes after the last OVA challenge
Description: To investigate the anti-inflammatory effect of CpdX or CpdX-D3 on an allergic conjunctivitis, Balb/C mice were intraperitoneally sensitized with 50 μg OVA with alum on both days D1 and D8, and then challenged from D15 to D21 with 250 μg OVA in 5 μL of sterilized vehicle (0.9% NaCl), which were directly instilled onto the conjunctival sac. From D22 to D24, mice were divided into several groups, and received instillations with either OVA alone, OVA together with 0.1% of either Dex, CpdX, CpdX(eA), CpdX(eB), CpdX-D3, CpdX-D3(eA) or CpdX-D3(eB).
The clinical appearance of mouse eyes was evaluated 20 minutes after the last instillation on D24. Clinical signs (conjunctival hyperemia, lid edema and tearing) were scored to evaluate the occurrence and severity of conjunctivitis as described by Gimenes et al. (2015. Experimental Eye Research 134:24-32). Parameters were graded on a scale ranging from 0 to 3, (0=absence, 1=mild, 2=moderate, and 3=severe symptoms), each animal receiving a total clinical score ranging from 0 to 9. The data were expressed as mean±SEM with at least four mice per treatment.

[4] = test system: dorsal skin of Balb/C mice; assay: Skin epidermis atrophy after 8-day topical treatment of dorsal skin; type: in vivo; settings: eight-day topical treatment
Excerpt: To investigate whether, similarly to Dex, a topical administration of CpdX could result in a skin atrophy, Balb/C mice were shaved on the dorsal skin. Ethanol (vehicle), Dex, CpdX or either one of its two enantiomers CpdX(eA) or CpdX(eB), as well as the deuterated form CpdX-D3 or either one of its two enantiomers CpdX-D3(eA) or CpdX-D3(eB), were topically applied onto the dorsal skin for 8 days.
Upon completion of the treatments, RNA transcripts were extracted from dorsal skin samples and the transcripts of Kindlin-1 and REDD1 genes were analyzed by q-RT-PCR. Histological and morphometric analyses of the dorsal skin were also performed.

[5] = test system: thymus, spleen, adrenal gland and kidney; assay: Organ weights (thymus, spleen, adrenal gland, kidney) after three-month treatment; type: in vivo, B6 male mice; settings: s.c. 1 mg/kg daily, three months
Description: B6 male mice (8-week-old) were daily subjected for three months to a subcutaneous injection of either vehicle (NaCl 0.9%), Dex, CpdX, CpdX(eA), CpdX(eB), CpdX-D3, CpdX-D3(eA) or CpdX-D3(eB) (1 mg/kg body weight, diluted in vehicle). Following these treatments, four organs (thymus, spleen, adrenal gland and kidney) were harvested and weighted.

[6] = test system: adrenal glands; assay: Corticosterone synthesis and adrenal gland after three-month treatment; type: in vivo, B6 male mice; settings: three months; for cortex layers, most notably the fasciculata zone, of the adrenal glands (histology) / transcripts of Cyp11a, Cyp11b1 and HSD3β genes in adrenal glands (corticosterone synthesis pathway): s.c. 1 mg/kg daily; for transcripts of Cyp11a, Cyp11b1 and HSD3β genes in adrenal glands (corticosterone synthesis pathway): q-RT-PCR; for plasmatic corticosterone level at 10 a.m.: vs Vehicle
Description: B6 male mice (8-week-old) were daily subjected for three months to either a subcutaneous injection of vehicle (NaCl 0.9%), Dex, CpdX, CpdX(eA), CpdX(eB), CpdX-D3, CpdX-D3(eA) or CpdX-D3(eB) (1 mg/kg body weight, diluted in vehicle).
Following this long-term treatment, blood was collected at 10 a.m. and 6 p.m. by retro-orbital puncture in lithium-heparin coated vials, and the plasmatic level of corticosterone was determined. Adrenal glands were harvested and weighted. RNA transcripts were extracted and transcripts of the Cyp11a, Cyp11b1, Cyp11b2 and HSD3β genes were analyzed by q-RT-PCR. Histological analyses of the adrenal glands were also carried out.

[7] = Blood glucose and intraperitoneal glucose tolerance test (IPGTT) after three-month treatment; type: in vivo, B6 male mice; settings: three months; glucose i.p. injection
Description: B6 male mice (8-week-old) were daily subjected for three months to a subcutaneous injection of either vehicle (NaCl 0.9%), Dex, CpdX, CpdX(eA), CpdX(eB), CpdX-D3, CpdX-D3(eA) or CpdX-D3(eB) (1 mg/kg body weight, diluted in vehicle). Mice were over-night-fasted. Mouse blood glucose concentration was measured before (To) and during two hours (T120) after glucose i.p. injection ([…]).

| epidermal thickness (morphometric analyses) [4] | cortex layers, most notably the fasciculata zone, of the adrenal glands (histology) [6] | transcripts of Cyp11a, Cyp11b1 and HSD3β genes in adrenal glands (corticosterone synthesis pathway) [6] | plasmatic corticosterone level at 10 a.m. [6] | Structure (SMILES) | hind paw thickness at the ankle level [1] | pro-inflammatory genes overexpressed in DSS-induced ulcerative colitis (IL-1β, IL-6, IL-17a, IL-17f, TSLP, MMP13) [2] | colonic villus/crypt structure (histology) [2] | mucosal and submucosal cell infiltration (histology) [2] | clinical signs of allergic conjunctivitis (conjunctival hyperemia, lid edema and tearing) [3] | thymus apoptosis (thymus weight) [5] | blood glucose level during two-hour IPGTT [7] |
| --- | --- | --- | --- | --- | --- | --- | --- | --- | --- | --- | --- |
| not significantly decreased | markedly increased | increased | much higher | COc1ccc(F)cc1C(C)(C)CC(O)(CNc1ccc2c(c1)COC2=O)C(F)(F)F (single isomer, unassigned; enantiomer b) [CpdX(eB), 5-[4-(5-fluoro-2-methoxyphenyl)-2-hydroxy-4-methyl-2-(trifluoromethyl)-pentylamino]isobenzofuran-1(3H)-one enantiomer B] | no such decrease | similarly repressed | almost reestablished | significantly decreased | considerably reduced | did not result in any significant thymus apoptosis | no significant difference |
| not significantly decreased | markedly increased | increased | much higher | [2H]C([2H])([2H])Oc1ccc(F)cc1C(C)(C)CC(O)(CNc1ccc2c(c1)COC2=O)C(F)(F)F (single isomer, unassigned; enantiomer b) [CpdX-D3(eB), 5-{4-[2-(methoxy-D3)-5-fluorophenyl]-2-hydroxy-4-methyl-2-(trifluoromethyl)pentylamino}isobenzofuran-1(3H)-one enantiomer B] | no such decrease | similarly repressed | almost reestablished | significantly decreased | considerably reduced | did not result in any significant thymus apoptosis | no significant difference |
